Reference: ChEMBL document CHEMBL1135042, “Structure-activity relationships for analogues of the phenazine-based dual topoisomerase I/II inhibitor XR11576” (Bioorg Med Chem Lett, 2002)

Legend:
NCI-H69 [1] = assay: In vitro cytotoxicity against human small cell lung carcinoma H69/P.; type: functional, cell-based
[2] = Ratio of IC50 values against H69/P and […] cell lines.; type: functional
NCI-H69 [3] = assay: In vitro cytotoxicity against multi-drug resistant human small cell lung carcinoma H69/LX4.; type: functional, cell-based

| Compound | IC50 (NCI-H69 [1]) | Ratio [2] | IC50 (NCI-H69 [3]) |
| --- | --- | --- | --- |
| CC/N=C(\S)Oc1ccc2c(c1)cc(C(=O)NCCN(C)C)c1nc3ccccc3nc12 | 519 nM | 1.12 | 583 nM |
| CN(C)CCNC(=O)c1cccc2ncc(-c3ccc([N+](=O)[O-])cc3)nc12 | 2400 nM | 1.41 | 3380 nM |
| C#CCOc1ccc2c(c1)cc(C(=O)NCCN(C)C)c1nc3ccccc3nc12 | 435 nM | 1.4 | 613 nM |
| CN(C)CCNC(=O)c1cc2ccccc2c2nc3ccccc3nc12 | 406 nM | 1.26 | 511 nM |
| CN(C)CCNC(=O)c1cccc2nc(-c3ccccc3)c(-c3ccccc3)nc12 | > 100000 nM |  | > 100000 nM |
| CN(C)CCNC(=O)c1cccc2ncc(-c3ccccc3)nc12 | 3930 nM | 0.9 | 3590 nM |
| Cc1cccc2nc3c(nc12)c(C(=O)NCCN(C)C)cc1ccccc13 | 417 nM | 0.8 | 320 nM |
| CN(C)CCNC(=O)c1cccc2nc3c(nc12)-c1cccc2cccc-3c12 | 350 nM | 0.93 | 330 nM |
| CN(C)CCNC(=O)c1cc2cc(OC(=O)Nc3ccccc3)ccc2c2nc3ccccc3nc12 | 104 nM | 2.42 | 252 nM |
| CN(C)CCNC(=O)c1cc2cc(OCCCO)ccc2c2nc3ccccc3nc12 | 523 nM | 3.87 | 2030 nM |
| COc1ccc2c(c1)cc(C(=O)NCCN(C)C)c1nc3ccccc3nc12 | 282 nM | 1.3 | 358 nM |
| CN(C)CCNC(=O)c1cc2cc(OCc3ccccc3)ccc2c2nc3ccccc3nc12 | 1220 nM | 1.29 | 1580 nM |
| COCCOc1ccc2c(c1)cc(C(=O)NCCN(C)C)c1nc3ccccc3nc12 | 445 nM | 1.23 | 545 nM |
| CN(C)CCNC(=O)c1cc2cccc([N+](=O)[O-])c2c2nc3ccccc3nc12 | 458 nM | 1.3 | 584 nM |
| CN(C)CCNC(=O)c1cc2cccc(N)c2c2nc3ccccc3nc12 | 259 nM | 1.33 | 345 nM |
| CN(C)CCNC(=O)c1cc2cc(OCCN3CCOCC3)ccc2c2nc3ccccc3nc12 | 506 nM | 1.17 | 592 nM |
| CN(C)CCNC(=O)c1cc2cc(O)ccc2c2nc3ccccc3nc12 | 94 nM | 2.12 | 198 nM |
| COc1cccc2c1ccc1nc3cccc(C(=O)N[C@@H](C)CN(C)C)c3nc12 | 20 nM |  | 20 nM |
| CN(C)CCNC(=O)c1cccc2ncc(-c3ccc4ccccc4c3)nc12 | 1820 nM | 0.92 | 1670 nM |
